Measured values published in ChEMBL document CHEMBL4627252, “Synthesis and biological evaluation of bis-N2,N2'-(4-hydroxycoumarin-3-yl)ethylidene]-2,3-dihydroxysuccinodihydrazides” (Bioorg Med Chem Lett, 2020).
≈ marks a conversion by molar mass, not a printed value.

How the values were obtained:
[1] = Cytotoxicity against human HeLa cells assessed as cell viability at 20 uM incubated for 24 hrs by resazurin dye base fluorescence analysis relative to control; format: cell-based; settings: read-out: Activity
[2] = target: Human immunodeficiency virus type 1 protease (Human immunodeficiency virus 1) (UniProt Q72874); assay: Inhibition of HIV-1 protease at 20 uM relative to control
Plasmodium falciparum = assay: Antimalarial activity against Plasmodium falciparum 3D7 infected in human erythrocytes assessed as parasite viability at 20 uM incubated for 48 hrs by parasite LDH release based colorimetric assay relative to control; format: functional
[3] = test system: Trypanosoma brucei brucei; assay: Antitrypanosomal activity against Trypanosoma brucei brucei assessed as parasite viability at 20 uM relative to control; format: functional
[4] = test system: Mycobacterium tuberculosis; assay: Antimycobacterial activity against Mycobacterium tuberculosis H37Rv assessed as inhibition of bacterial growth by measuring visual MIC90 measured after 14 days by green fluorescent protein based microplate assay; format: functional; settings: 336 h
[5] = test system: Mycobacterium tuberculosis; assay: Antimycobacterial activity against Mycobacterium tuberculosis H37Rv assessed as inhibition of bacterial growth by measuring calculated MIC90 measured after 14 days by green fluorescent protein based microplate assay; format: functional; settings: 336 h
HeLa = assay: Cytotoxicity against human HeLa cells assessed as inhibition of cell viability incubated for 24 hrs by resazurin dye based fluorescence analysis
[6] = target: Human immunodeficiency virus type 1 integrase (Human immunodeficiency virus 1, UniProt Q7ZJM1); assay: Inhibition of HIV-1 integrase
Human immunodeficiency virus type 1 integrase, sequence (Q7ZJM1 whole entry): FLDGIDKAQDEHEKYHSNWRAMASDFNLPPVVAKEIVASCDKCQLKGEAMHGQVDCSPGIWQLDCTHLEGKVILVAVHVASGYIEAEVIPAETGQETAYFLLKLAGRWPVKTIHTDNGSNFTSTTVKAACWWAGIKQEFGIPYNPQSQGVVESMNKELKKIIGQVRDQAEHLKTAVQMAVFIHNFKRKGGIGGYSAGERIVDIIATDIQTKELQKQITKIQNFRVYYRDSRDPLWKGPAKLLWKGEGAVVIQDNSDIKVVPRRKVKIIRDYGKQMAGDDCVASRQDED

[7] = test system: Trypanosoma brucei brucei; assay: Antitrypanosomal activity against Trypanosoma brucei brucei assessed as inhibition of parasite viability; format: functional, organism-based

With `COc1ccc2oc(=O)c(/C(C)=N/NC(=O)C(O)C(O)C(=O)N/N=C(\C)c3c(O)c4cc(OC)ccc4oc3=O)c(O)c2c1` (racemic) the viability at 24 h, 20 µM [1] was 84.6%, the inhibition [2] was 0% and the Activity (Plasmodium falciparum) was 100%. For the same molecule, the Activity [3] was 100%, the MIC90 [4] was > 125 µM and the MIC90 [5] was > 125 µM.

In the case of `C/C(=N\NC(=O)C(O)C(O)C(=O)N/N=C(\C)c1c(O)c2c(ccc3ccccc32)oc1=O)c1c(O)c2c(ccc3ccccc32)oc1=O` (racemic), the viability at 24 h, 20 µM [1] is reported as 98.1%, the inhibition [2] is reported as 0% and the Activity (Plasmodium falciparum) is reported as 100%. For the same molecule, the Activity [3] was 100%, the MIC90 [4] was 31.2 µM (≈ 20.3 µg/mL) and the MIC90 [5] was 29.5 µM (≈ 19.2 µg/mL).

For `C/C(=N\NC(=O)C(O)C(O)C(=O)N/N=C(\C)c1c(O)c2cc(Br)ccc2oc1=O)c1c(O)c2cc(Br)ccc2oc1=O` (racemic), the viability at 24 h, 20 µM [1] was 100%, the inhibition [2] was 0% and the Activity (Plasmodium falciparum) was 100%. The Activity [3] was 100%, the MIC90 [4] was 15.6 µM (≈ 11.1 µg/mL) and the MIC90 [5] was 18.9 µM (≈ 13.4 µg/mL).

`C/C(=N\NC(=O)C(O)C(O)C(=O)N/N=C(\C)c1c(O)c2cc(Cl)ccc2oc1=O)c1c(O)c2cc(Cl)ccc2oc1=O` (racemic) showed a viability at 24 h, 20 µM [1] of 100%, an inhibition [2] of 0% and an Activity (Plasmodium falciparum) of 93.8%. For the same molecule, the Activity [3] was 44.6%, the MIC90 [4] was 31.2 µM (≈ 19.4 µg/mL) and the MIC90 [5] was 54.2 µM (≈ 33.6 µg/mL).

Molecule `CC[C@H]1CN2CCc3cc(OC)c(OC)cc3[C@@H]2C[C@@H]1C[C@H]1NCCc2cc(OC)c(OC)cc21` [EMETINE] has an IC50 (HeLa) of 13 nM.

In the case of `C/C(=N\NC(=O)C(O)C(O)C(=O)N/N=C(\C)c1c(O)c2ccccc2oc1=O)c1c(O)c2ccccc2oc1=O` (racemic), the IC50 [6] is reported as 3500 nM, the viability at 24 h, 20 µM [1] is reported as 78.4% and the inhibition [2] is reported as 0%. The Activity (Plasmodium falciparum) was 90.7%, the Activity [3] was 42.7% and the MIC90 [4] was > 125 µM. The MIC90 [5] was > 125 µM.

In the case of `N=C(N)c1ccc(OCCCCCOc2ccc(C(=N)N)cc2)cc1` [PENTAMIDINE], the IC50 [7] is reported as 39 nM.

`C/C(=N\NC(=O)C(O)C(O)C(=O)N/N=C(\C)c1c(O)c2cc(C)ccc2oc1=O)c1c(O)c2cc(C)ccc2oc1=O` (racemic) gave a viability at 24 h, 20 µM [1] of 85.3%, an inhibition [2] of 8.3% and an Activity (Plasmodium falciparum) of 100%. The Activity [3] was 100%, the MIC90 [4] was > 125 µM and the MIC90 [5] was > 125 µM.

In the case of `C/C(=N\NC(=O)C(O)C(O)C(=O)N/N=C(\C)c1c(O)c2cc(F)ccc2oc1=O)c1c(O)c2cc(F)ccc2oc1=O` (racemic), the viability at 24 h, 20 µM [1] is reported as 84.6%, the inhibition [2] is reported as 0% and the Activity (Plasmodium falciparum) is reported as 92.8%. The Activity [3] was 32.8%, the MIC90 [4] was > 125 µM and the MIC90 [5] was > 125 µM.

Work on `CO[C@H]1/C=C/O[C@@]2(C)Oc3c(C)c(O)c4c(O)c(c(/C=N/N5CCN(C)CC5)c(O)c4c3C2=O)NC(=O)/C(C)=C\C=C\[C@H](C)[C@H](O)[C@@H](C)[C@@H](O)[C@@H](C)[C@H](OC(C)=O)[C@@H]1C` [RIFAMPIN] yielded an MIC90 [4] of 0.019 µM (≈ 0.0156 µg/mL) and an MIC90 [5] of 0.007 µM (≈ 0.00576 µg/mL).
